From PubChem BioAssay (NCI) come the findings set out here.

Molecules are shown by their SMILES.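 96-well plates; 48 h exposure; 5 concentrations. Endpoints by linear interpolation between flanking doses. Not reached: highest tested concentration assigned. TGI: concentration producing complete growth inhibition.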 Where a SMILES comes first, the peptide text is derived from it. [ ]: non-standard residue; d: D form. The star is where a group is joined. Phe(4-NO2) = N[CH](Cc1ccc([N+](=O)[O-])cc1)C(=O)O; Boc = CC(C)(C)OC(=O)*; OtBu = CC(C)(C)O*

Test systems include ACHN renal; BT-549 breast; EKVX NSCLC; HCT-15 colon; NCI/ADR-RES ovarian; RXF 393 renal; SF-268 CNS; SF-295 CNS; SK-MEL-2 melanoma; UO-31 renal.
Test in all cases: DTP human tumour cell line panel, 48 h

With `CC(=O)c1nccc2c1c(C)nc1ccccc12`, the TGI in the test with ACHN renal, in the test on BT-549 breast, with EKVX NSCLC, in the test on HCT-15 colon, with NCI/ADR-RES ovarian and in the test with RXF 393 renal was over 100 µM each time. For the same compound, the TGI in the test with SF-268 CNS, in the test with SF-295 CNS, with SK-MEL-2 melanoma and with UO-31 renal was over 100 µM each time.

For `O=C1O/C(=C\c2ccc(O)cc2)C(c2ccc(O)c(Cl)c2)=C1Br`, the TGI in the test on ACHN renal was 30 µM; with BT-549 breast, 23.8 µM; with EKVX NSCLC it was 40.7 µM; in the test with HCT-15 colon, 26.7 µM; in the test on NCI/ADR-RES ovarian it was 65.4 µM; with RXF 393 renal it was 59.8 µM. The TGI with SF-268 CNS turned out to be 45.2 µM; with SF-295 CNS, 28.9 µM; in the test on SK-MEL-2 melanoma, 28.5 µM; with UO-31 renal, 36.4 µM.

With `O=C(O)c1ccc(Nc2cnc3ccc(C(F)(F)F)cc3n2)cc1`, the TGI is 32.6 µM in the test with ACHN renal; 60.1 µM with BT-549 breast; over 100 µM with EKVX NSCLC; 36.8 µM in the test with HCT-15 colon; over 100 µM in the test with NCI/ADR-RES ovarian; 35.3 µM with RXF 393 renal. Further, the TGI with SF-268 CNS was over 100 µM; in the test on SF-295 CNS, 45.3 µM; with SK-MEL-2 melanoma it was 30.7 µM; in the test on UO-31 renal, 27.5 µM.

As for `N#Cc1nnc2c3c(-c4ccc(Cl)cc4)c(C#N)c(=O)[nH]c3nn2c1N`, the TGI came out at 21.9 µM in the test with ACHN renal; 10.3 µM in the test with BT-549 breast; 30.9 µM with EKVX NSCLC; 30.9 µM in the test with HCT-15 colon; 54.9 µM with NCI/ADR-RES ovarian; 14.9 µM in the test on RXF 393 renal. Besides, the TGI in the test with SF-268 CNS worked out at 12.6 µM; in the test on SF-295 CNS it was 23.9 µM; in the test on SK-MEL-2 melanoma, 26.9 µM; in the test with UO-31 renal, 20.7 µM.

Turning to `Cc1ccc(Nc2nnc3n2S(=O)(=O)c2cc(C)c(Cl)cc2S3)cc1`, the TGI in the test with ACHN renal is over 100 µM; in the test with BT-549 breast, 31.3 µM; in the test with EKVX NSCLC, 87.4 µM; in the test on HCT-15 colon, 51.3 µM; in the test with NCI/ADR-RES ovarian, 43.5 µM; in the test on RXF 393 renal, 49.1 µM. Further, the TGI came to 18.4 µM with SF-268 CNS, 25.7 µM with SF-295 CNS, 67.1 µM in the test on SK-MEL-2 melanoma and 81.3 µM with UO-31 renal.

As for `CC1=CC(c2ccccc2)n2c(nc3cc4ccccc4cc32)N1` (stereo not given), the TGI with ACHN renal, in the test with BT-549 breast, in the test with EKVX NSCLC, in the test with HCT-15 colon, in the test on NCI/ADR-RES ovarian and in the test on RXF 393 renal was over 100 µM throughout. The TGI with SF-268 CNS, with SF-295 CNS, in the test on SK-MEL-2 melanoma and with UO-31 renal was over 100 µM each time.

With `COc1ccc(C[C@H]2COC(=O)[C@@H]2Cc2cc(OC)c(OC)c(OC)c2)cc1OC`, the TGI with ACHN renal, in the test on BT-549 breast, in the test with EKVX NSCLC, with HCT-15 colon, with NCI/ADR-RES ovarian and with RXF 393 renal was over 100 µM in each case. Moreover, the TGI in the test on SF-268 CNS, in the test on SF-295 CNS, in the test with SK-MEL-2 melanoma and with UO-31 renal was over 100 µM throughout.

For the compound `CC(C)[Si]1(C(C)C)OCC2OC(n3cnc4c(N)ncnc43)C(N)C2O[Si](C(C)C)(C(C)C)O1` (stereo not given), the TGI with ACHN renal was 21.6 µM; in the test with BT-549 breast, 14.3 µM; in the test with EKVX NSCLC it was over 66.9 µM; in the test with HCT-15 colon, 23.8 µM; in the test with NCI/ADR-RES ovarian, 20.7 µM; in the test on RXF 393 renal, 27.1 µM. The TGI came to 41.4 µM in the test with SF-268 CNS, 21.5 µM with SF-295 CNS, 24.6 µM in the test with SK-MEL-2 melanoma and 27.6 µM with UO-31 renal.

On to `COC(=O)C(Cc1ccc([N+](=O)[O-])cc1)NC(=O)C(CC(=O)OC(C)(C)C)NC(=O)OC(C)(C)C` (stereo not given) (Boc-Asp(OtBu)-[Phe(4-NO2)]-OMe; configuration not given here), for which the TGI with ACHN renal, with BT-549 breast, in the test on EKVX NSCLC, with HCT-15 colon, in the test on NCI/ADR-RES ovarian and in the test with RXF 393 renal was over 100 µM in each case. For the same compound, the TGI was over 100 µM with SF-268 CNS, over 100 µM in the test on SF-295 CNS, over 100 µM in the test with SK-MEL-2 melanoma and 29.6 µM in the test with UO-31 renal.

For `BrCC[P+](c1ccccc1)(c1ccccc1)c1ccccc1`, the TGI with ACHN renal was over 100 µM; in the test on BT-549 breast it was 39.6 µM; in the test with EKVX NSCLC, 12.8 µM; with HCT-15 colon, over 100 µM; in the test with NCI/ADR-RES ovarian it was 27.5 µM; in the test on RXF 393 renal it was 8.02 µM. Besides, the TGI with SF-268 CNS is 8.25 µM; with SF-295 CNS, over 100 µM; in the test with SK-MEL-2 melanoma, 16.7 µM; in the test with UO-31 renal, 22.8 µM.

For `CN(Cc1nc2c(N)nc(N)nc2nc1N)c1ccc(C(=O)NC(CCC(=O)O)C(=O)O)cc1` (stereo not given), the TGI in the test on ACHN renal, in the test on BT-549 breast, in the test with EKVX NSCLC, with HCT-15 colon, with NCI/ADR-RES ovarian and in the test on RXF 393 renal was over 100 µM each time. Further, the TGI in the test on SF-268 CNS, with SF-295 CNS, in the test on SK-MEL-2 melanoma and in the test with UO-31 renal was over 100 µM throughout.

As to `C/C(=N\O)c1ccc(Nc2c3ccccc3nc3occc23)cc1`, the TGI with ACHN renal is over 50 µM; in the test on BT-549 breast it was over 12.4 µM; in the test with EKVX NSCLC it was over 50 µM; in the test with HCT-15 colon, 4.07 µM; with NCI/ADR-RES ovarian, 0.484 µM; in the test with RXF 393 renal, 0.614 µM. The TGI in the test with SF-268 CNS was over 43.9 µM; in the test with SF-295 CNS, 5.26 µM; in the test with SK-MEL-2 melanoma, 3.5 µM; in the test with UO-31 renal, over 50 µM.

Usually TGI stands for the concentration giving total growth inhibition. A higher TGI goes with lower sensitivity of the cells.
